Test results from ChEMBL document CHEMBL3885861, “Open TG-GATES”.

Species on record: Rattus norvegicus
Assay: Open TG-GATES - Regimen: Single
Assay type: toxicity, organism-based, Sprague-Dawley
Design: regimen Single, gender Male, age 6 weeks
Conditions: in vivo, po, route gavage; for WBC / APTT / Bas / Eos / Fbg / Hb / Ht / Lym / MCH / MCHC / MCV / Mono / Neu / PT / Plat / RBC / Ret: tissue Blood; for KIDNEY_L / KIDNEY_R / KIDNEY_TOTAL: tissue Kidney; for LIVER: tissue Liver; for ALP / ALT / AST / BUN / CRE / Ca / Cl / DBIL / GLC / IP / K / LDH / Na / PL / RALB / TBIL / TC / TP / gamma-GTP: tissue Plasma
[1] = 5 mg/kg, 9 h, dose level Middle
[2] = 5 mg/kg, 24 h, dose level Middle

Work on `O=P1(N(CCCl)CCCl)NCCCO1` (stereo unspecified) [CYCLOPHOSPHAMIDE ANHYDROUS] yielded a WBC [1] of 57.2 x10_2/uL, a KIDNEY_L [1] of 0.9 g and a KIDNEY_R [1] of 0.9 g. It also gave a KIDNEY_TOTAL [1] of 1.8 g, an LIVER [1] of 7.9 g and an ALP [1] of 1360.2 IU/L. For the same molecule, the ALT [1] was 35.2 IU/L, the AST [1] was 65.8 IU/L and the BUN [1] was 9 mg/dL. For the same molecule, the CRE [1] was 0.1 mg/dL, the Ca [1] was 10.5 mg/dL and the Cl [1] was 106.6 meq/L. For the same molecule, the DBIL [1] was 0.002 mg/dL, the GLC [1] was 179.4 mg/dL and the IP [1] was 9.7 mg/dL. The K [1] was 4 meq/L, the LDH [1] was 146.8 IU/L and the Na [1] was 143.6 meq/L. The PL [1] was 129.8 mg/dL, the RALB [1] was 3 g/dL and the TBIL [1] was 0.042 mg/dL. For the same molecule, the TC [1] was 76.8 mg/dL, the TP [1] was 5.5 g/dL and the gamma-GTP [1] was 1 IU/L. It also gave a TERMINAL_BW [2] of 203.3 g, an APTT [2] of 22.1 s and a Bas [2] of 0%. For the same molecule, the Eos [2] was 1%, the Fbg [2] was 307.6 mg/dL and the Hb [2] was 12.8 g/dL. For the same molecule, the Ht [2] was 38.5%, the Lym [2] was 88.4% and the MCH [2] was 21.4 pg. For the same molecule, the MCHC [2] was 33.3%, the MCV [2] was 64.1 fL and the Mono [2] was 1.6%. It also gave a Neu [2] of 8%, a PT [2] of 16.2 s and a Plat [2] of 134.5 x10_4/uL. It also gave an RBC [2] of 600.4 x10_4/ul, a Ret [2] of 7.3% and a WBC [2] of 58.1 x10_2/uL. It also gave a KIDNEY_L [2] of 0.9 g, a KIDNEY_R [2] of 0.9 g and a KIDNEY_TOTAL [2] of 1.9 g. For the same molecule, the LIVER [2] was 9.4 g, the ALP [2] was 1835.8 IU/L and the ALT [2] was 48.6 IU/L. The AST [2] was 73.2 IU/L, the BUN [2] was 15.4 mg/dL and the CRE [2] was 0.2 mg/dL. It also gave a Ca [2] of 10.7 mg/dL, a Cl [2] of 105.2 meq/L and a DBIL [2] of 0.002 mg/dL. It also gave a GLC [2] of 180.2 mg/dL, an IP [2] of 8 mg/dL and a K [2] of 4.2 meq/L. It also gave an LDH [2] of 156.8 IU/L, a Na [2] of 142.8 meq/L and a PL [2] of 148.4 mg/dL. It also gave an RALB [2] of 3 g/dL, a TBIL [2] of 0.014 mg/dL and a TC [2] of 76.2 mg/dL. The TP [2] was 5.5 g/dL, the gamma-GTP [2] was 1 IU/L and the TERMINAL_BW (15 mg/kg, 3 h, dose level High) was 195.2 g. The TERMINAL_BW (15 mg/kg, 3 h, dose level Low) was 191.1 g, the APTT (15 mg/kg, 3 h, dose level High) was 21.4 s and the Bas (15 mg/kg, 3 h, dose level High) was 0%. It also gave an Eos (15 mg/kg, 3 h, dose level High) of 0.8%, a Fbg (15 mg/kg, 3 h, dose level High) of 291.2 mg/dL and a Hb (15 mg/kg, 3 h, dose level High) of 13 g/dL. It also gave a Ht (15 mg/kg, 3 h, dose level High) of 38.9%, a Lym (15 mg/kg, 3 h, dose level High) of 76.2% and an MCH (15 mg/kg, 3 h, dose level High) of 21.2 pg. For the same molecule, the MCHC (15 mg/kg, 3 h, dose level High) was 33.4%, the MCV (15 mg/kg, 3 h, dose level High) was 63.4 fL and the Mono (15 mg/kg, 3 h, dose level High) was 1.8%. It also gave a Neu (15 mg/kg, 3 h, dose level High) of 20.2%, a PT (15 mg/kg, 3 h, dose level High) of 15.6 s and a Plat (15 mg/kg, 3 h, dose level High) of 120 x10_4/uL. The RBC (15 mg/kg, 3 h, dose level High) was 613.8 x10_4/ul, the Ret (15 mg/kg, 3 h, dose level High) was 8.2% and the WBC (15 mg/kg, 3 h, dose level High) was 75.9 x10_2/uL. For the same molecule, the APTT (15 mg/kg, 3 h, dose level Low) was 16.4 s, the Fbg (15 mg/kg, 3 h, dose level Low) was 273.4 mg/dL and the Hb (15 mg/kg, 3 h, dose level Low) was 12.8 g/dL. The Ht (15 mg/kg, 3 h, dose level Low) was 38.1%, the Lym (15 mg/kg, 3 h, dose level Low) was 81.6% and the MCH (15 mg/kg, 3 h, dose level Low) was 21 pg. For the same molecule, the MCHC (15 mg/kg, 3 h, dose level Low) was 33.5%, the MCV (15 mg/kg, 3 h, dose level Low) was 62.8 fL and the Mono (15 mg/kg, 3 h, dose level Low) was 2.8%. The Neu (15 mg/kg, 3 h, dose level Low) was 14.2%, the PT (15 mg/kg, 3 h, dose level Low) was 13.8 s and the Plat (15 mg/kg, 3 h, dose level Low) was 112.1 x10_4/uL. For the same molecule, the RBC (15 mg/kg, 3 h, dose level Low) was 608.2 x10_4/ul, the Ret (15 mg/kg, 3 h, dose level Low) was 8.6% and the WBC (15 mg/kg, 3 h, dose level Low) was 94.2 x10_2/uL. The KIDNEY_L (15 mg/kg, 3 h, dose level High) was 0.9 g, the KIDNEY_R (15 mg/kg, 3 h, dose level High) was 0.9 g and the KIDNEY_TOTAL (15 mg/kg, 3 h, dose level High) was 1.7 g. For the same molecule, the KIDNEY_L (15 mg/kg, 3 h, dose level Low) was 0.8 g, the KIDNEY_R (15 mg/kg, 3 h, dose level Low) was 0.8 g and the KIDNEY_TOTAL (15 mg/kg, 3 h, dose level Low) was 1.6 g. For the same molecule, the LIVER (15 mg/kg, 3 h, dose level High) was 9 g, the LIVER (15 mg/kg, 3 h, dose level Low) was 8.5 g and the ALP (15 mg/kg, 3 h, dose level High) was 1506.2 IU/L. For the same molecule, the ALT (15 mg/kg, 3 h, dose level High) was 38.8 IU/L, the AST (15 mg/kg, 3 h, dose level High) was 70.6 IU/L and the BUN (15 mg/kg, 3 h, dose level High) was 11 mg/dL. It also gave a CRE (15 mg/kg, 3 h, dose level High) of 0.1 mg/dL, a Ca (15 mg/kg, 3 h, dose level High) of 10.7 mg/dL and a Cl (15 mg/kg, 3 h, dose level High) of 105.6 meq/L. It also gave a DBIL (15 mg/kg, 3 h, dose level High) of 0 mg/dL, a GLC (15 mg/kg, 3 h, dose level High) of 179.4 mg/dL and an IP (15 mg/kg, 3 h, dose level High) of 9.1 mg/dL. The K (15 mg/kg, 3 h, dose level High) was 4.1 meq/L, the LDH (15 mg/kg, 3 h, dose level High) was 197.8 IU/L and the Na (15 mg/kg, 3 h, dose level High) was 142.6 meq/L. For the same molecule, the PL (15 mg/kg, 3 h, dose level High) was 136 mg/dL, the RALB (15 mg/kg, 3 h, dose level High) was 2.9 g/dL and the TBIL (15 mg/kg, 3 h, dose level High) was 0.032 mg/dL. The TC (15 mg/kg, 3 h, dose level High) was 71.8 mg/dL, the TP (15 mg/kg, 3 h, dose level High) was 5.3 g/dL and the gamma-GTP (15 mg/kg, 3 h, dose level High) was 1 IU/L. The ALP (15 mg/kg, 3 h, dose level Low) was 1407.8 IU/L, the ALT (15 mg/kg, 3 h, dose level Low) was 39 IU/L and the AST (15 mg/kg, 3 h, dose level Low) was 74.2 IU/L. The BUN (15 mg/kg, 3 h, dose level Low) was 10.2 mg/dL, the CRE (15 mg/kg, 3 h, dose level Low) was 0.2 mg/dL and the Ca (15 mg/kg, 3 h, dose level Low) was 10.9 mg/dL. The DBIL (15 mg/kg, 3 h, dose level Low) was 0.014 mg/dL, the GLC (15 mg/kg, 3 h, dose level Low) was 173.8 mg/dL and the IP (15 mg/kg, 3 h, dose level Low) was 8.1 mg/dL. The K (15 mg/kg, 3 h, dose level Low) was 4.4 meq/L, the LDH (15 mg/kg, 3 h, dose level Low) was 64 IU/L and the Na (15 mg/kg, 3 h, dose level Low) was 141.2 meq/L. For the same molecule, the PL (15 mg/kg, 3 h, dose level Low) was 136.4 mg/dL, the RALB (15 mg/kg, 3 h, dose level Low) was 2.4 g/dL and the TBIL (15 mg/kg, 3 h, dose level Low) was 0.056 mg/dL.
